Three compounds from patent US20250381109A1, “KERATIN TREATMENT FORMULATIONS AND METHODS” (Olaplex, Inc., priority 2014, published 2025) can be followed below.

Assay [1] can be described thus: Traditional perm versus perm using maleic acid (Example 6). Particulars: perm after ammonium thioglycolate or dithiothreitol; after 40 cycles of washing and drying.
Assay [2] can be described thus: Hair breakage due to repeated application of traditional perm and the active agent formulation (Example 7). Conditions: after dithiothreitol or ammonium thioglycolate; procedure repeated three times over a 48 hour time period.
Assay [3] can be described thus: Hair treated with bleaching formulation applied simultaneously with active agent formulation versus bleaching formulation alone (Example 4). Also noted: species or system human. Particulars: 3.5 g of 12 wt % in water added to bleaching mixture, two hours. As to the method:
(1) 0.5 ounces of powder lightener (Clairol Professional, Basic White) and 0.5 ounces of conditioning cream developer (Redken, Blonde Icing) were combined to form a bleaching mixture. 3.5 g of 2-(methacryloyloxy)ethan-1-aminium (Z)-3-carboxyacrylate (12 wt % in water) was added to the bleaching mixture and thoroughly mixed with a brush.
(§1) (2) The bleaching mixture prepared was brushed onto the swatches of hair with a brush in order to thoroughly coat the strands of hair. The mixture coated hair was wrapped in aluminum paper and allowed to stand under ambient conditions for a period of two hours.
(§2) (3) After the two hour bleaching period the swatches of hair were washed with shampoo and the hair was subsequently allowed to air dry.

A short description of assay [4]: Hair treated with bleaching formulation applied simultaneously with active agent formulation versus bleaching formulation alone (Example 5). Also noted: species or system human. Conditions: 3.5 g of 10 wt % in water added to bleaching mixture, two hours. As to the method:
(1) 0.5 ounces of powder lightener (Clairol Professional, Basic White) and 0.5 ounces of conditioning cream developer (Redken, Blonde Icing) were combined to form a bleaching mixture. 3.5 g of prop-2-en-1-aminium (Z)-3-carboxyacrylate (10 wt % in water) was added to the bleaching mixture and thoroughly mixed with a brush.
as §1, §2

With `OO` [hydrogen peroxide], the “reduction in the overall curl” value in assay [1] was “only slight reduction in the overall curl”. Also, in assay [2], the “breakage upon visual inspection” value was “significant breakage”.

Regarding `C=C(C)C(=O)OCCN.O=C(O)/C=C\C(=O)O` [2-(methacryloyloxy)ethan-1-aminium (Z)-3-carboxyacrylate], in assay [3], the appearance entry is recorded as “healthy appearance”, the breakage result is recorded as “no discernible breakage” and the feel entry was “great feel”.

For the compound `C=CCN.O=C(O)/C=C\C(=O)O` [prop-2-en-1-aminium (Z)-3-carboxyacrylate], in assay [4], the appearance result is on record as “healthy appearance”, the breakage entry is listed as “no discernible breakage” and the feel entry is listed as “great feel”.
